Here are results for seven molecules from patent US8822517B2, “Arylosulfonamides for the treatment of CNS diseases” (Adamed SP. Z O.O., priority 2010, dated 2014).

Assay [1] deals with serotoninergic 5-HT2A receptor (Homo sapiens, UniProt P28223). Description: Binding assay 5-HT2A (h), [3H]ketanserin, HEK-293 cells. Also noted: expressed in transfected cells; host or cells: HEK-293 cells. The settings on record: read-out: 5-HT2A. In short, it runs like this:
(§1)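 Compounds tested at a single 1×10^−6 M concentration against the listed radioligands; bound label counted by scintillation, with non-specific binding defined by excess unlabelled ligand and subtracted from total.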

The target of a further assay is dopaminergic D3 receptor (Homo sapiens, UniProt P35462). Description: Binding assay D3 (h), [3H]methyl-spiperone, CHO cells. The settings on record: read-out: D3 [%]. Also noted: expressed in transfected cells; host or cells: CHO cells. In short, it runs like this:
as §1

A further assay concerns sigma σ receptor. Description: Binding assay σ (non-selective), [3H]DTG, rat cerebral cortex. The settings on record: percent inhibition of control specific binding; compounds tested at 1×10^−6 M. In short, it runs like this: as §1
Assay [2] deals with serotoninergic 5-HT7 receptor (Homo sapiens, UniProt P34969). Description: Binding assay 5-HT7 (h), [3H]LSD, CHO cells. More on the design: expressed in transfected cells; host or cells: CHO cells. Conditions: read-out: 5-HT7. In short, it runs like this:
as §1

Assay [3] concerns the target serotoninergic 5-HT6 receptor (Homo sapiens, UniProt P50406). Description: Binding assay 5-HT6 (h), [3H]LSD, CHO cells. Also noted: expressed in transfected cells; host or cells: CHO cells. The settings on record: read-out: 5-HT6. In short, it runs like this:
as §1

The target of another assay is dopaminergic D2 receptor (Homo sapiens, UniProt P14416). Description: Binding assay D2S (h), [3H]methyl-spiperone, HEK-293 cells. More on the design: expressed in transfected cells; host or cells: HEK-293 cells. Conditions: read-out: D2 [%]. In short, it runs like this:
as §1

The target in assay [4] is histaminergic H1 receptor (Homo sapiens, UniProt P35367). Description: Binding assay H1 (h), [3H]pyrilamine, HEK-293 cells. More on the design: expressed in transfected cells; host or cells: HEK-293 cells. Conditions: read-out: H1 [%]. In short, it runs like this:
as §1

Another assay has as its target T1, adrenergic α2C receptor (Homo sapiens, UniProt P18825).
T1 sequence (P18825 1-462): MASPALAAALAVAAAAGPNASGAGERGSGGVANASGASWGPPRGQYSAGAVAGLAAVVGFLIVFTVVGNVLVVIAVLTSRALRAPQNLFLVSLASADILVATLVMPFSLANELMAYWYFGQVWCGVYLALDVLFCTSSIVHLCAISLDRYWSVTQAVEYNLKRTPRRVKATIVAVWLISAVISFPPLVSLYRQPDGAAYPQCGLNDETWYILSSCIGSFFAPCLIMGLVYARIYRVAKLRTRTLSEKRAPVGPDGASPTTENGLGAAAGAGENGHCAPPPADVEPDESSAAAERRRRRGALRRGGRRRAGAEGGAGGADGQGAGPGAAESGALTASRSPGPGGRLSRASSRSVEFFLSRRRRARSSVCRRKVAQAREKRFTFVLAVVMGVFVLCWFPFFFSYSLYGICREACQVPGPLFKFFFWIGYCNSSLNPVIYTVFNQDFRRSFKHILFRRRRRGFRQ
Description: Binding assay α2C (h), [3H]RX 821002, CHO cells. Also noted: expressed in transfected cells; host or cells: CHO cells. Conditions: read-out: α2C [%]. In short, it runs like this:
as §1

In the next assay the test system is adrenergic α1 receptor. Description: Binding assay α1 (non-selective), [3H]prazosin, rat cerebral cortex. Conditions: percent inhibition of control specific binding; compounds tested at 1×10^−6 M. In short, it runs like this:
as §1

A further assay addresses T2, muscarinic M3 receptor (Homo sapiens, UniProt P20309).
T2 construct: expressed in transfected cells; host or cells: CHO cells
Description: Binding assay M3 (h), [3H]4-DAMP, CHO cells. Conditions: read-out: M3 [%]. In short, it runs like this:
as §1

Assay [5] concerns the target T3, serotoninergic receptor 5-HT2C (Homo sapiens, UniProt P28335).
T3 construct: expressed in transfected cells; host or cells: HEK-293 cells
T3 sequence (P28335 33-458): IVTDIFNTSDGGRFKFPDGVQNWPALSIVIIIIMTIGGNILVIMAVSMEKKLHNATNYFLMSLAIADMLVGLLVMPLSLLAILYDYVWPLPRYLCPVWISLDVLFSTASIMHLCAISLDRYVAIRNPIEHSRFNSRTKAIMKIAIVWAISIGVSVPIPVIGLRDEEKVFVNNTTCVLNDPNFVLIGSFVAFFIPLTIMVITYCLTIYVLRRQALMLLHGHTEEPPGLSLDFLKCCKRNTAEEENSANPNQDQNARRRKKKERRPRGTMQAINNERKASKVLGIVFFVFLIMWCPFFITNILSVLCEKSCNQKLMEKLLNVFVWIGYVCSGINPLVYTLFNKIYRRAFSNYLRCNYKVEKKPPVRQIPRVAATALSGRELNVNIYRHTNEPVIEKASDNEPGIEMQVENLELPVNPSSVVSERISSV
Description: Binding assay 5-HT2C (h), [3H]mesulergine, HEK-293 cells. Conditions: read-out: 5-HT2C [%]. In short, it runs like this:
as §1

Assay [6] has as its target T4, serotonine transporter (SERT) receptor (Homo sapiens, UniProt P31645).
T4 construct: expressed in transfected cells; host or cells: CHO cells
Description: Binding assay SERT (h), [3H]imipramine, CHO cells. Conditions: read-out: SERT [%]. In short, it runs like this:
as §1

For assay [7], the target named is T5, serotoninergic 5-HT1A receptor (Homo sapiens, UniProt P08908).
T5 sequence (P08908 1-422): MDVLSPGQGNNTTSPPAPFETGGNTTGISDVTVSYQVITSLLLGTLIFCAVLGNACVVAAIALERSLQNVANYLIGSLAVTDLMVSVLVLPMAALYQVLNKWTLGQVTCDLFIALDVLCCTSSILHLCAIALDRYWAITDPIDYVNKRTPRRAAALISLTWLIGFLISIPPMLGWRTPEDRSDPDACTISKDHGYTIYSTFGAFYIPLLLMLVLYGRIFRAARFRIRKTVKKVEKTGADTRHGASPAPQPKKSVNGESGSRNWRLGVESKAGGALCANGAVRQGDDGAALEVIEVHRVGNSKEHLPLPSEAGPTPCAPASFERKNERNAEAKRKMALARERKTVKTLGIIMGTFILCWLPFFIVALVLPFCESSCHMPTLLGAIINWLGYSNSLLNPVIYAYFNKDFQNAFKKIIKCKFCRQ
Description: Binding assay 5-HT1A (h), [3H]8-OH-DPAT, HEK-293 cells. The settings on record: read-out: 5-HT1A. Also noted: expressed in transfected cells; host or cells: HEK-293 cells. In short, it runs like this:
as §1

dopaminergic D3 receptor, sequence (P35462 whole entry): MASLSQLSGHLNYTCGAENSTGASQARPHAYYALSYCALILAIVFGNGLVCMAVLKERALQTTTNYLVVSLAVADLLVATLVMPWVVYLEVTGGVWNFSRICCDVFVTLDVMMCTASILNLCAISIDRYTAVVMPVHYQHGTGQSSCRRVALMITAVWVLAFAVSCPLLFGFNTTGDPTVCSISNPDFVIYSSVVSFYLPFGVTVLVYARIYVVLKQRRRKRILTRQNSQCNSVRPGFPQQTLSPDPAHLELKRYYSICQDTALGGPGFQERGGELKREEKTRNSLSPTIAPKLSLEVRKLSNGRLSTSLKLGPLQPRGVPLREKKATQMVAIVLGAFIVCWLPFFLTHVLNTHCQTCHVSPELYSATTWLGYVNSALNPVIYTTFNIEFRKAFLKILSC
T4 sequence (P31645 whole entry): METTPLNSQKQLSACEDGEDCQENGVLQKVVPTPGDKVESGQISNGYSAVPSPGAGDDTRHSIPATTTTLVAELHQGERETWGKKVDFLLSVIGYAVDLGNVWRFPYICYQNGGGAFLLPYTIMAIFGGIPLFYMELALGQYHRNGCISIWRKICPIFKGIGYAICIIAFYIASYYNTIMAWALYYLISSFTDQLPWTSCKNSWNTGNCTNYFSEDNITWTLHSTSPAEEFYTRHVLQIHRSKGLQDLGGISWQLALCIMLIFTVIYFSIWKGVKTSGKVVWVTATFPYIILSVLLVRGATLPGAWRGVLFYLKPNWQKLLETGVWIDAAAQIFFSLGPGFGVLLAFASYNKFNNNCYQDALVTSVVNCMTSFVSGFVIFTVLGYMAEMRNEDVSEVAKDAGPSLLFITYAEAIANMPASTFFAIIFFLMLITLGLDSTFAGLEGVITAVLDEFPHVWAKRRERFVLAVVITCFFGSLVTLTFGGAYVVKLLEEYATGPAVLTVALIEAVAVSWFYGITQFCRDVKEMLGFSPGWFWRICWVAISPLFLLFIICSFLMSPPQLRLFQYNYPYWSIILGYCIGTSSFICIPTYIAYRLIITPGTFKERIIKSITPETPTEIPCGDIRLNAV
serotoninergic 5-HT6 receptor, sequence (P50406 whole entry): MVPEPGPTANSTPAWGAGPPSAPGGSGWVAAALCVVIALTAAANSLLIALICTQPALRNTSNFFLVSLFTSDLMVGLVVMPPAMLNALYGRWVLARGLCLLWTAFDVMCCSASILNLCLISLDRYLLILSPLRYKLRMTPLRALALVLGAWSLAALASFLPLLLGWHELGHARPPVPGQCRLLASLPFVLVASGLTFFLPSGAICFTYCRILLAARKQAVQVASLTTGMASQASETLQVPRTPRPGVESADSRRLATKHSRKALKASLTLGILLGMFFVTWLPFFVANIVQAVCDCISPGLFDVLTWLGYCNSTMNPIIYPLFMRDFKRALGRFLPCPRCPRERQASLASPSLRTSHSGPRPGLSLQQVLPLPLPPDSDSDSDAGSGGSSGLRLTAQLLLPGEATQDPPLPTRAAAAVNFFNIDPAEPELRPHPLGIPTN
dopaminergic D2 receptor, sequence (P14416 1-414 isoform P14416-2): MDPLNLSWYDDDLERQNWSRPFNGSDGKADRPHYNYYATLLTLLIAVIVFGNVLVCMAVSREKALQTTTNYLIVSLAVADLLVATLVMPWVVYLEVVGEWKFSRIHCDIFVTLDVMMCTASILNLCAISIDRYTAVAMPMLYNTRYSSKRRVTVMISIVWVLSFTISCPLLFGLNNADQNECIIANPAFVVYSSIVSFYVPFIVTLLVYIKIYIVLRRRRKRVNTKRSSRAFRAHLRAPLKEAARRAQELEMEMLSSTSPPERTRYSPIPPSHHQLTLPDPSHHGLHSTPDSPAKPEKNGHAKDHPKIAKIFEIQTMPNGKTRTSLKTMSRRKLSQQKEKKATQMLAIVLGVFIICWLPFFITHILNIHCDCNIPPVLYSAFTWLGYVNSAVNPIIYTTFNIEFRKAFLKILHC
serotoninergic 5-HT7 receptor, sequence (P34969 whole entry): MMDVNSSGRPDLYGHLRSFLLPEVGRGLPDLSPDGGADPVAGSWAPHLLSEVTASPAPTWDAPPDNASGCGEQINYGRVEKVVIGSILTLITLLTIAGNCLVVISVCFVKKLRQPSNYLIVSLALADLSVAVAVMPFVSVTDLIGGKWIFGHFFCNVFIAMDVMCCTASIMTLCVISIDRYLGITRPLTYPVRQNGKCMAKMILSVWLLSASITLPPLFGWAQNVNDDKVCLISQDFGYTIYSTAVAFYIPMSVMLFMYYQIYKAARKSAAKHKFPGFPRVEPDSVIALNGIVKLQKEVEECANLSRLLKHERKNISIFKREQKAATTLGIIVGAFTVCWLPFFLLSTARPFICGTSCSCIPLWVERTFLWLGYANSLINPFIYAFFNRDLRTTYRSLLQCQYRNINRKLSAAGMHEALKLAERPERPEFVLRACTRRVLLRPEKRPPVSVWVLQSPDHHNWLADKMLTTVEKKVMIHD
histaminergic H1 receptor, sequence (P35367 whole entry): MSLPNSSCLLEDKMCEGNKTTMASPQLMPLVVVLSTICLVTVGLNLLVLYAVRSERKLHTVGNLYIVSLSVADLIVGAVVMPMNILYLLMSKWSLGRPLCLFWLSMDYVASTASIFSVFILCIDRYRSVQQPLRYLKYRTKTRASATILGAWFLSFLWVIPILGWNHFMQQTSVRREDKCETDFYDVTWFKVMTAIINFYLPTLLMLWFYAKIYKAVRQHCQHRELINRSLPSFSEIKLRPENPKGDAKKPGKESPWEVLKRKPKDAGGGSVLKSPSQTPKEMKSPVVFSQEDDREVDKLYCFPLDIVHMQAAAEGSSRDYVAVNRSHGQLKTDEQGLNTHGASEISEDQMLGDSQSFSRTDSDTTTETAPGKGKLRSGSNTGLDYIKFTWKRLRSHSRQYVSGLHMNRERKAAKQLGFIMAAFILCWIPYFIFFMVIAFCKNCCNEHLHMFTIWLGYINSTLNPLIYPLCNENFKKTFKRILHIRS
serotoninergic 5-HT2A receptor, sequence (P28223 whole entry): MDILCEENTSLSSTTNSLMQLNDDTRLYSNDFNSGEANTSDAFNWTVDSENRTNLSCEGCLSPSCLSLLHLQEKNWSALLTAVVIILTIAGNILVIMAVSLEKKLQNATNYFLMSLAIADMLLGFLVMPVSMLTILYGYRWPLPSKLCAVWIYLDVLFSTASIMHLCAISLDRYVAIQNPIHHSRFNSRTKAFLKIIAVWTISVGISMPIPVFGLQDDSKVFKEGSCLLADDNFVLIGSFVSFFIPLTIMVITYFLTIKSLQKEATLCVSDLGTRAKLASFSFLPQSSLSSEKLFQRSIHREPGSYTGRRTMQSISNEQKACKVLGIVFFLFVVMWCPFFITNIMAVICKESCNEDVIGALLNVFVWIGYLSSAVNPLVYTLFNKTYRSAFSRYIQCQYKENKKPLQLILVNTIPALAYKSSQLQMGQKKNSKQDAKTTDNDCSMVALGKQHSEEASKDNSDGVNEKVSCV
T2 sequence (P20309 whole entry): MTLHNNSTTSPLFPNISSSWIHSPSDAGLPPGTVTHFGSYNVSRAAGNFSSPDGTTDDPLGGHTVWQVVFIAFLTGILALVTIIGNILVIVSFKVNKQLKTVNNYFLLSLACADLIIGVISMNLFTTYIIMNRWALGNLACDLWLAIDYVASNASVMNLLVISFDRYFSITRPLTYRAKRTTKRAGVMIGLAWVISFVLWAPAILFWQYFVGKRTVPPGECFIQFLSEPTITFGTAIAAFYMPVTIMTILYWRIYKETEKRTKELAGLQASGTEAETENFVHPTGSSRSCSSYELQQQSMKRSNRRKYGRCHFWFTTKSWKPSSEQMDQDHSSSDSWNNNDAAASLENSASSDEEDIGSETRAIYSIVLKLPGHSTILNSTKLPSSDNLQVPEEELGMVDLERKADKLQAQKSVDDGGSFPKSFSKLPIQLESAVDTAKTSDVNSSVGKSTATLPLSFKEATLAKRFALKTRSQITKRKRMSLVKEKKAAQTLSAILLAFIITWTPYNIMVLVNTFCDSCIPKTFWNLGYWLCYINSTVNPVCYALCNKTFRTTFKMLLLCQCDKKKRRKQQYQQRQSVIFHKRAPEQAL

For the molecule `O=S(=O)(NCCCN1CCN(c2nsc3ccccc23)CC1)c1ccc2cn[nH]c2c1` [Compound 268, N-[3-[4-(1,2-Benzothiazol-3-yl)piperazin-1-yl]propyl]-1H-indazole-6-sulphonamide], the inhibition at 1 µM in assay [1] was found to be 102%; at dopaminergic D3 receptor, 98%; in [2] it was 99%; in assay [3], 93%; at dopaminergic D2 receptor it was 98%; in assay [4], 95%. In addition, the inhibition at 1 µM at adrenergic α2C receptor came out at 99%; at muscarinic M3 receptor, 14%; in assay [5], 78%; in assay [6], 86%; in assay [7], 98%. Further, in the assay on sigma σ receptor, the “σ [%]” value came out at 30%. In the assay on adrenergic α1 receptor, the “α1 [%]” value is 90%.

With `O=S(=O)(NCCCN1CCN(c2nsc3ccccc23)CC1)c1cccc(Cl)c1` [Compound 70, N-[3-[4-(1,2-Benzothiazol-3-yl)piperazin-1-yl]propyl]-3-chlorobenzenesulphonamide], the inhibition at 1 µM in assay [1] is 101%; on dopaminergic D3 receptor, 101%; in assay [2], 100%; in assay [3], 99%; at dopaminergic D2 receptor it was 99%; in [4], 97%. In addition, the inhibition at 1 µM on adrenergic α2C receptor is 100%; on muscarinic M3 receptor, 25%; in [5], 88%; in assay [6] it was 82%; in assay [7], 99%. In addition, the “σ [%]” value with sigma σ receptor stood at 64%. The “α1 [%]” value in the assay on adrenergic α1 receptor worked out at 96%.

On to `O=S(=O)(NCCCN1CCC(c2noc3cc(F)ccc23)CC1)c1cc2cccnc2[nH]1` [Compound 357, N-[3-[4-(6-Fluoro-1,2-benzoxazol-3-yl)piperidin-1-yl]propyl]-1H-pyrrolo[2,3-b]pyridine-2-sulphonamide], for which the inhibition at 1 µM was determined as 101% in assay [1]; 94% on dopaminergic D3 receptor; 99% in assay [2]; 94% in [3]; 99% on dopaminergic D2 receptor; 84% in assay [4]. Besides, the inhibition at 1 µM was 94% at adrenergic α2C receptor; 25% on muscarinic M3 receptor; 83% in assay [5]; 41% in assay [6]; 63% in assay [7]. Further, in the assay on sigma σ receptor, the “σ [%]” value is listed as 64%. Further, the “α1 [%]” value in the assay with adrenergic α1 receptor is reported as 99%.

Take `O=S(=O)(NCCCCN1CCN(c2nsc3ccccc23)CC1)c1cccc(O)c1` [Compound 231, N-[4-[4-(1,2-Benzothiazol-3-yl)piperazin-1-yl]butyl]-3-hydroxybenzenesulphonamide]: the inhibition at 1 µM worked out at 101% in [1]; 97% on dopaminergic D3 receptor; 99% in assay [2]; 95% in assay [3]; 99% on dopaminergic D2 receptor; 97% in assay [4]. The inhibition at 1 µM on adrenergic α2C receptor amounted to 99%; at muscarinic M3 receptor, 11%; in assay [5], 87%; in [6], 59%; in [7], 97%. The “σ [%]” value in the assay with sigma σ receptor came to 62%. Further, in the assay with adrenergic α1 receptor, the “α1 [%]” value worked out at 96%.

As to `Cc1[nH]c2ccc(Cl)cc2c1C1=CCN(CCCCNS(=O)(=O)c2ccc(Cl)cc2)CC1` [Compound 58, 4-Chloro-N-{4-[4-(5-chloro-2-methyl-1H-indol-3-yl)-3,6-dihydropyridin-1(2H)-yl]butyl}benzenesulphonamide], the inhibition at 1 µM amounted to 51% in assay [1]; 100% on dopaminergic D3 receptor; 46% in [2]; 84% in assay [3]; 97% on dopaminergic D2 receptor; 75% in assay [4]. The inhibition at 1 µM on adrenergic α2C receptor came to 80%; at muscarinic M3 receptor, 11%; in [5], 21%; in [6] it was 78%; in [7] it was 94%. Also, the “σ [%]” value with sigma σ receptor was determined as 34%. In addition, the “α1 [%]” value with adrenergic α1 receptor came to 76%.

On to `O=S(=O)(NCCCN1CCN(c2nsc3ccccc23)CC1)c1csc2ccccc12` [Compound 263, N-[3-[4-(1,2-Benzothiazol-3-yl)piperazin-1-yl]propyl]benzothiophene-3-sulphonamide], for which the inhibition at 1 µM amounted to 102% in assay [1]; 98% at dopaminergic D3 receptor; 98% in [2]; 96% in [3]; 98% on dopaminergic D2 receptor; 93% in [4]. Further, the inhibition at 1 µM at adrenergic α2C receptor is 93%; on muscarinic M3 receptor it was 7%; in [5], 87%; in assay [6] it was 87%; in assay [7], 98%. The “σ [%]” value with sigma σ receptor is 49%. Besides, the “α1 [%]” value with adrenergic α1 receptor is on record as 90%.

Take `O=S(=O)(NCCCCN1CCC(c2noc3cc(F)ccc23)CC1)c1cccs1` [Compound 325, N-[4-[4-(6-Fluoro-1,2-benzoxazol-3-yl)piperidin-1-yl]butyl]thiophene-2-sulphonamide]: the inhibition at 1 µM in [1] was 102%; on dopaminergic D3 receptor it was 95%; in assay [2], 98%; in assay [3] it was 72%; on dopaminergic D2 receptor, 96%; in assay [4], 83%. The inhibition at 1 µM on adrenergic α2C receptor is 93%; at muscarinic M3 receptor, 26%; in assay [5] it was 49%; in [6], 20%; in [7], 62%. In the assay with sigma σ receptor, the “σ [%]” value amounted to 85%. The “α1 [%]” value with adrenergic α1 receptor is 95%.
